US9718822B2, “Macrocyclic compounds as Trk kinase inhibitors” (Array BioPharma, Inc., priority 2010, dated 2017)
Like-named read-outs stand apart in the source and are kept apart here.

Assays:
[1] = target: His-tagged recombinant human TrkA (cytoplasmic domain) (Homo sapiens (Human), UniProt P04629); assay: TrkA Binding Assay (LanthaScreen Eu Kinase Binding Assay)
Method: The ability of a compound to bind to TrkA was measured by Invitrogen's LanthaScreen™ Eu Kinase Binding Assay. […] After a 60-minute incubation at 22° C., the reaction was measured using the EnVision via TR-FRET dual wavelength detection, and the POC was calculated from the emission ratio. The compound dose response data was fit to a 4-parameter logistic model and IC50 was defined as the concentration of compound at 50 POC.

[2] = target: histidine-tagged recombinant human TrkA, cytoplasmic domain (Homo sapiens (Human), UniProt P04629); assay: TrkA ELISA Assay; assay type: biochemical; details: read-out: TrkA Elisa Enzyme Assay IC50; note: 2.5 nM TrkA
Method: An enzyme-linked immunosorbant assay (ELISA) was used to assess TrkA kinase activity in the presence of inhibitors. Immulon 4HBX 384-well microtiter plates (Thermo part #8755) were coated with a 0.025 mg/mL solution of poly (Glu, Ala, Tyr; 6:3:1; Sigma P3899). […] The assay buffer consisted of 25 mM MOPS pH 7.5, 0.005% (v/v) Triton X-100 and 5 mM MgCl2. The reaction mixture was removed from the plate by washing with PBS containing 0.1% (v/v) Tween 20. The phosphorylated reaction product was detected using 0.2 μg/mL of a phosphotyrosine specific monoclonal antibody (clone PY20) conjugated to horseradish peroxidase in conjunction with the TMB Peroxidase Substrate System (KPL). After the addition of 1M phosphoric acid, the chromogenic substrate color intensity was quantitated via absorbance at 450 nm. IC50 values were calculated using either a 4 or 5-parameter logistic curve fit.
Table 1 provides averaged IC50 values for compounds of the invention when tested in this assay.

[3] = DMF

histidine-tagged recombinant human TrkA, cytoplasmic domain, sequence (P04629 440-796): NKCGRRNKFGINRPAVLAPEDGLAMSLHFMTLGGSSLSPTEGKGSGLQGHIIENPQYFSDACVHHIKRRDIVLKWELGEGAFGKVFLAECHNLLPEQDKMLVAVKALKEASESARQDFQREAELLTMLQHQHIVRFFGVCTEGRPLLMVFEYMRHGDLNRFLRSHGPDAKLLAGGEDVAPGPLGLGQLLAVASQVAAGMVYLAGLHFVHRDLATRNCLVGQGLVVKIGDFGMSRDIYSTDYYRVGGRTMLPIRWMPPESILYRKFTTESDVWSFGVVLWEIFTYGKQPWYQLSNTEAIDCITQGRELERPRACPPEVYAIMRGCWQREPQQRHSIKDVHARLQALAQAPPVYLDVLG
His-tagged recombinant human TrkA (cytoplasmic domain), sequence (P04629 440-796): as above

| IC50 [1] | IC50 [2] | Structure (SMILES) | also measured |
| --- | --- | --- | --- |
|  |  | O=C1NC[C@H](O)COc2ccc(F)cc2C2CC(F)(F)CN2c2ccn3ncc1c3n2 (stereo partly drawn) | ring closure, yield of all isomers (from O=C(NC[C@H](O)CCl)c1cnn2ccc(N3CC(F)(F)CC3c3cc(F)ccc3O)nc12, ether bond, Cs2CO3, DMF, 20.0 mM, 85.0 °C, 0.5 h): 44% |
| 1 to 100 nM | 1 to 100 nM | O=C1NC[C@@H](O)COc2ncc(F)cc2[C@H]2CCCN2c2ccn3ncc1c3n2 [Example 7, (6R,15R)-9-fluoro-15-hydroxy-13-oxa-2,11,17,21,22,25-hexaazapentacyclo-[17.5.2.0^2,6.0^7,12.0^22,26]hexacosa-1(25),7,9,11,19(26),20,23-heptaen-18-one] | ring closure, yield of all isomers (from O=C(NC[C@@H](O)CCl)c1cnn2ccc(N3CCC[C@@H]3c3cc(F)c[nH]c3=O)nc12, ether bond, Cs2CO3, DMF, 98.6 mM, 85.0 °C, 1.0 h): 40% |
|  |  | O=C1NCCOc2ncc(F)cc2[C@H]2CCCN2c2ccn3ncc1c3n2 [Example 9, (6R)-9-fluoro-13-oxa-2,11,16,20,21,24-hexaazapentacyclo[16.5.2.0^2,6.0^7,12.0^21,25]pentacosa-1(24),7,9,11,18(25),19,22-heptaen-17-one] | IC50 ([1]; averaged IC50 values, TR-FRET, 60-minute incubation at 22° C., 2% DMSO final): 1 to 100 nM; IC50 ([2]; averaged IC50 values, […] TrkA, 500 μM ATP, 25 minutes at ambient temperature): 1 to 100 nM; ring closure, yield of all isomers (from O=C(NCCCl)c1cnn2ccc(N3CCC[C@@H]3c3cc(F)c[nH]c3=O)nc12, ether bond, Cs2CO3, DMF, […], 85.0 °C, 0.5 h): 24% |
|  | 1 to 100 nM | O=C1OCCOc2ncc(F)cc2[C@H]2CCCN2c2ccn3ncc1c3n2 [Example 14, (6R)-9-fluoro-13,16-dioxa-2,11,20,21,24-pentaazapentacyclo[16.5.2.0^2,6.0^7,12.0^21,25]pentacosa-1(24),7,9,11,18(25),19,22-heptaen-17-one] | ring closure, yield of all isomers (from O=C(OCCCl)c1cnn2ccc(N3CCC[C@@H]3c3cc(F)c[nH]c3=O)nc12, ether bond, Cs2CO3, DMF, 22.2 mM, 90.0 °C, 16.0 h): 31% |
|  | 100 to 3000 nM | O=C1OCCn2cc(F)cc(c2=O)[C@H]2CCCN2c2ccn3ncc1c3n2 [Example 15, (6R)-9-fluoro-14-oxa-2,11,18,19,22-pentaazapentacyclo[14.5.2.1^7,11.0^2,6.0^19,23]tetracosa-1(22),7,9,16(23), 17,20-hexaene-15,24-dione] | ring closure, isolated yield ([3]; from O=C(OCCCl)c1cnn2ccc(N3CCC[C@@H]3c3cc(F)c[nH]c3=O)nc12, ether bond, 13-membered ring, Cs2CO3, 22.2 mM, 90.0 °C, 16.0 h): 22% |
| 1 to 100 nM | 1 to 100 nM | O=C1NOCCOc2ncc(F)cc2[C@H]2CCCN2c2ccn3ncc1c3n2 [Example 16, (6R)-9-fluoro-13,16-dioxa-2,11,17,21,22,25-hexaazapentacyclo [17.5.2.0^2,6.0^7,12.0^22,26]hexacosa-1(25),7,9,11,19(26),20,23-heptaen-18-one] | ring closure, yield of all isomers (from O=C(NOCCCl)c1cnn2ccc(N3CCC[C@@H]3c3cc(F)c[nH]c3=O)nc12, ether bond, Cs2CO3, DMF, 100.0 mM, 90.0 °C, […]): 1% |
| 1 to 100 nM | 1 to 100 nM | CN1CCCOc2ncc(F)cc2[C@H]2CCCN2c2ccn3ncc(c3n2)C1=O [Example 18, (6R)-9-fluoro-17-methyl-13-oxa-2,11,17,21,22,25-hexaazapentacyclo[17.5.2.0^2,6.0^7,12.0^22,26]hexacosa-1(25),7,9,11,19(26),20,23-heptaen-18-one] | ring closure, yield of all isomers (from CN(CCCCl)C(=O)c1cnn2ccc(N3CCC[C@@H]3c3cc(F)c[nH]c3=O)nc12, ether bond, Cs2CO3, DMF, 10.0 mM, 90.0 °C, 0.25 h): 36% |
| 1 to 100 nM | 1 to 100 nM | O=C(CO)N1CCOc2ccc(F)cc2[C@H]2CCCN2c2ccn3ncc(c3n2)C1 [Example 23, 1-[(6R)-9-fluoro-13-oxa-2,16,20,21,24-pentaazapentacyclo[16.5.2.0^2,6.0^7,12.0^21,25]pentacosa-1(24),7,9,11,18(25),19,22-heptaen-16-yl]-2-hydroxyethan-1-one] |  |
| 100 to 3000 nM | 100 to 3000 nM | O=C(O)CN1CCOc2ccc(F)cc2[C@H]2CCCN2c2ccn3ncc(c3n2)C1 [Example 26, 2-[(6R)-9-fluoro-13-oxa-2,16,20,21,24-pentaazapentacyclo[16.5.2.0^2,6.0^7,12.0^21,25]pentacosa-1(24),7,9,11,18(25),19,22-heptaen-16-yl]acetic acid] |  |
|  | 1 to 100 nM | O=C1NCCCOc2ncc(F)cc2[C@H]2COC(=O)N2c2ccn3ncc1c3n2 [Example 30, (6S)-9-fluoro-4,13-dioxa-2,11,17,21,22,25-hexaazapentacyclo [17.5.2.0^2,6.0^7,12.0^22,26]hexacosa-1(25),7(12),8,10,19(26),20,23-heptaene-3,18-dione] | ring closure, yield of all isomers (from O=C(NCCCCl)c1cnn2ccc(N3C(=O)OC[C@@H]3c3cc(F)c[nH]c3=O)nc12, ether bond, Cs2CO3, DMF, 26.7 mM, 65.0 °C, 48.5 h): 41% |
| 100 to 3000 nM | 100 to 3000 nM | O=C1NCCOc2ncc(F)cc2[C@H]2COC(=O)N2c2ccn3ncc1c3n2 [Example 31, (6S)-9-fluoro-4,13-dioxa-2,11,16,20,21,24-hexaazapentacyclo [16.5.2.0^2,6.0^7,12.0^21,25]pentacosa-1(24),7(12),8,10,18(25),19,22-heptaene-3,17-dione] |  |
| 1 to 100 nM |  | O=C1NCCCc2ncc(F)cc2[C@H]2CCCN2c2ccn3ncc1c3n2 [Example 32, (6R)-9-fluoro-2,11,16,20,21,24-hexaazapentacyclo[16.5.2.0^2,6.0^7,12.0^21,25]pentacosa-1(24),7,9,11,18(25),19,22-heptaen-17-one] | ring closure, yield of all isomers (from NCCCc1ncc(F)cc1[C@H]1CCCN1c1ccn2ncc(C(=O)O)c2n1, amide bond, HATU, DMF, 8.4 mM, 3.0 h): 39% |
| 1 to 100 nM |  | CC1(C)CCc2ncc(F)cc2[C@H]2CCCN2c2ccn3ncc(c3n2)C(=O)N1 [Example 37] | ring closure, yield of all isomers (from COC(=O)c1cnn2ccc(N3CCC[C@@H]3c3cc(F)cnc3CCC(C)(C)NC(=O)OC(C)(C)C)nc12, amide bond, EDCI/HOBt/Et3N, DMF, 39.4 mM, 45.0 °C, 18.0 h, 3 steps): 48.3% |
| 1 to 100 nM |  | O=C1Nc2ncccc2COc2ncc(F)cc2[C@H]2CCCN2c2ccn3ncc1c3n2 [Example 39, (6R)-9-fluoro-13-oxa-2,11,19,21,25,26,29-heptaazahexacyclo [21.5.2.0^2,6.0^7,12.0^15,20.0^26,30]triaconta-1(29),7,9,11,15(20),16,18,23(30),24,27-decaen-22-one] | ring closure, yield of all isomers (from O=C(Nc1ncccc1CCl)c1cnn2ccc(N3CCC[C@@H]3c3cc(F)cnc3O)nc12, ether bond, Cs2CO3, DMF, 84.8 mM, 60.0 °C, 4.0 h, 4 steps): 2.2% |
| 1 to 100 nM |  | O=C1NC[C@H](O)COc2ccc(F)cc2[C@H]2C[C@@H](O)CN2c2ccn3ncc1c3n2 [Example 41, (4R,6R,15S)-9-fluoro-4,15-dihydroxy-13-oxa-2,17,21,22,25-pentaazapentacyclo [17.5.2.0^2,6.0^7,12.0^22,26]hexacosa-1(25),7(12),8,10,19(26),20,23-heptaen-18-one] | ring closure, yield of all isomers (from O=C(NC[C@H](O)CCl)c1cnn2ccc(N3C[C@H](O)CC3c3cc(F)ccc3O)nc12, ether bond, Cs2CO3, DMF, 21.6 mM, 85.0 °C, 0.5 h): 16.2% |

| Structure (SMILES) | IC50 [1] | IC50 [2] | also measured |
| --- | --- | --- | --- |
| O=C1NCCCOc2ncc(F)cc2[C@H]2CCCN2c2ccn3ncc1c3n2 [Example 3, (6R)-9-fluoro-13-oxa-2,11,17,21,22,25-hexaazapentacyclo[17.5.2.0^2,6.0^7,12.0^22,26]hexacosa-1(25),7,9,11,19(26),20,23-heptaen-18-one] | 1 to 100 nM | 1 to 100 nM | ring closure, yield of all isomers (from O=C(NCCCCl)c1cnn2ccc(N3CCC[C@@H]3c3cc(F)cnc3O)nc12, ether bond, Cs2CO3, DMF, […], 85.0 °C, 16.0 h): 44% |
| O=C1NCCCOc2ccc(F)cc2[C@H]2CCCN2c2ccn3ncc1c3n2 [Example 20, (6R)-9-fluoro-13-oxa-2,17,21,22,25-pentaazapentacyclo[17.5.2.0^2,6.0^7,12.0^22,26]hexacosa-1(25),7,9,11,19(26),20,23-heptaen-18-one] | 1 to 100 nM | 1 to 100 nM | ring closure, yield of all isomers (from CCOC(=O)c1cnn2ccc(N3CCC[C@@H]3c3cc(F)ccc3OCCCN)nc12, amide bond, DIEA, EtOH, 230.0 mM, 200.0 °C): 50% |
| C[C@@H]1CNC(=O)c2cnn3ccc(nc23)N2CCC[C@@H]2c2cc(F)cn(c2=O)C1 [Example 34, (6R,13R)-9-fluoro-13-methyl-2,11,15,19,20,23-hexaazapentacyclo [15.5.2.1^7,11.0^2,6.0^20,24]pentacosa-1(23),7,9,17(24),18,21-hexaene-16,25-dione] | 1 to 100 nM |  | ring closure, yield of all isomers (from COC(=O)c1cnn2ccc(N3CCC[C@@H]3c3cc(F)cn(C[C@H](C)CN)c3=O)nc12, amide bond, HATU, DMF, […], 3.0 h, 2 steps): 10%; ring closure, isolated yield ([3]; from C[C@H](CN)Cn1cc(F)cc([C@H]2CCCN2c2ccn3ncc(C(=O)O)c3n2)c1=O, amide bond, 14-membered ring, HATU/DIEA, […], 3.0 h, 2 steps): 10% |
